Target: T1, RACK1A Y248 phosphorylation (Arabidopsis thaliana, UniProt O24456)
T1 construct: from tissue; host or cells: one-week old Arabidopsis seedlings (whole-seedling lysate)
Experiment: Stress hormone (ABA) induced RACK1A Y248 phosphorylation in Arabidopsis seedlings, western blot (FIG. 1)
Format: cell-based
Details: 10 uM ABA, 12 hours
Source text: The results of lab experiment establish the compounds identified by in silico screen to prevent RACK1 Y248 phosphorylation can inhibit RACK1 Y248 phosphorylation and confirm their utility in their application in RACK1 mediated cellular pathways. Y248 phosphorylation has previously been identified as a key event needed for RACK1 mediated scaffolding activities by regulating protein-protein interactions in plants. The corresponding residue in human RAKI is also a key requirement for scaffolding activities needed at the receptor level during the invasion and migration of cancer cells. […] The knock-out plant did maintain both the RACK1B protein and the RACK1C protein, but the antibody was raised to detect the RACK1A Y248 phosphorylation only.
As to FIG. 1, since RACK1 is a regulator of plant stress hormone Abscisic acid (ABA) (Guo et al., 2009), one-week old Arabidopsis seedlings were treated with 10 uM of ABA in the presence/absence of the inhibitor compounds for 12 hours in a growth chamber (overnight) at 22 C mostly in the night dark. Lysates isolated in buffer (Cell Signaling, MA) supplemented with plant protease inhibitor (Sigma-Aldrich), Protein Tyrosine phosphatase inhibitors (Santa Cruz Biotechnology, TX), and N-Ethylamaleimide (Sigma-Aldrich) at 25 mM to inhibit de-sumoylation. […]

T1 sequence (O24456 whole entry): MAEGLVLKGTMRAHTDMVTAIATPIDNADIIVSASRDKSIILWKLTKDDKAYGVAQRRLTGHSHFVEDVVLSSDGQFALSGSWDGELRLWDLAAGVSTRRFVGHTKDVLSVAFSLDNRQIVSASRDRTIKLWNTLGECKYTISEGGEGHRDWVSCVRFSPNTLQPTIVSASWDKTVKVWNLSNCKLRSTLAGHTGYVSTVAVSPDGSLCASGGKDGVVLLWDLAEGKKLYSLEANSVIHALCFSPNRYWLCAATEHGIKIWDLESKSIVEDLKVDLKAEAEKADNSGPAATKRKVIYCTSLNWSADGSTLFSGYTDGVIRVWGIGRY

Nn1c(S)nnc1-c1ccc(F)cc1 [SD 29, reference compound]
RACK1A Y248 phosphorylation with stress hormone present: prevents Y248 phosphorylation

— patent publication US12629355B2, “Drug inhibitor against migration and invasion of cancer cells and methods of treating against metastasis of cancer cells” (HOWARD UNIVERSITY, priority 2019, dated 2026)
